# Source: PubChem BioAssay (NCI)
#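 Dose response: 5 concentrations. Exposure: 48 h. Format: 96-well plates. Endpoint: linear interpolation; highest concentration if not reached. TGI denotes the concentration required for complete inhibition of growth.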
# Tests used:
# Experiment in all cases: inhibition of tumour cell growth, NCI panel, 48 h
# NCI-H522 lung = system: NCI-H522 lung
# SF-539 CNS = system: SF-539 CNS
# HCC-2998 colon = system: HCC-2998 colon
# A549 NSCLC = system: A549 NSCLC
# HCT-15 colon = system: HCT-15 colon
# SR leukemia = system: SR leukemia
# SK-MEL-28 melanoma = system: SK-MEL-28 melanoma
# NCI-H226 lung = system: NCI-H226 lung
# MOLT-4 leukemia = system: MOLT-4 leukemia
# UACC-257 melanoma = system: UACC-257 melanoma
# ACHN renal = system: ACHN renal
# SNB-19 CNS = system: SNB-19 CNS
# M19-MEL melanoma = system: M19-MEL melanoma
# KM20L2 colon = system: KM20L2 colon
# K-562 leukemia = system: K-562 leukemia
# COLO 205 colon = system: COLO 205 colon
# HOP-18 NSCLC = system: HOP-18 NSCLC
# SW-620 colon = system: SW-620 colon
# DLD-1 colon = system: DLD-1 colon
# UO-31 renal = system: UO-31 renal
# SN12C renal = system: SN12C renal
# SK-MEL-2 melanoma = system: SK-MEL-2 melanoma
# HT29 colon = system: HT29 colon
# RXF 393 renal = system: RXF 393 renal
# LXFL 529 NSCLC = system: LXFL 529 NSCLC
# RPMI-8226 leukemia = system: RPMI-8226 leukemia
# HL-60(TB) leukemia = system: HL-60(TB) leukemia
# OVCAR-3 ovarian = system: OVCAR-3 ovarian
# HCT-116 colon = system: HCT-116 colon
# 786-0 renal = system: 786-0 renal
# OVCAR-8 ovarian = system: OVCAR-8 ovarian
# TK-10 renal = system: TK-10 renal
# HOP-62 NSCLC = system: HOP-62 NSCLC
# SNB-78 CNS = system: SNB-78 CNS
# DMS 273 small cell lung = system: DMS 273 small cell lung
# DMS 114 small cell lung = system: DMS 114 small cell lung
# SF-295 CNS = system: SF-295 CNS
# NCI-H460 lung = system: NCI-H460 lung
# RXF-631 renal = system: RXF-631 renal
# EKVX NSCLC = system: EKVX NSCLC
# OVCAR-5 ovarian = system: OVCAR-5 ovarian
# SK-OV-3 ovarian = system: SK-OV-3 ovarian
# CCRF-CEM leukemia = system: CCRF-CEM leukemia
# OVCAR-4 ovarian = system: OVCAR-4 ovarian
# SF-268 CNS = system: SF-268 CNS
# SNB-75 CNS = system: SNB-75 CNS
# CAKI-1 renal = system: CAKI-1 renal
# M14 melanoma = system: M14 melanoma
# NCI-H23 lung = system: NCI-H23 lung
# MALME-3M melanoma = system: MALME-3M melanoma
# KM12 colon = system: KM12 colon
# HOP-92 NSCLC = system: HOP-92 NSCLC
# UACC-62 melanoma = system: UACC-62 melanoma
# LOX IMVI melanoma = system: LOX IMVI melanoma
# SK-MEL-5 melanoma = system: SK-MEL-5 melanoma
# U251 CNS = system: U251 CNS
# IGROV1 ovarian = system: IGROV1 ovarian
# A498 renal = system: A498 renal
smiles,measurement,setting,value
CN1CCc2cc3c4cc2C1Cc1ccc(cc1)Oc1cc(ccc1O)CC1c2c(cc(O)c(c2O4)O3)CCN1C (configuration not stated),TGI,NCI-H522 lung,11.1 µM
same,TGI,SF-539 CNS,3.21 µM
same,TGI,HCC-2998 colon,4.11 µM
same,TGI,A549 NSCLC,6.11 µM
same,TGI,HCT-15 colon,4.27 µM
same,TGI,SR leukemia,> 100 µM
same,TGI,SK-MEL-28 melanoma,3.33 µM
same,TGI,NCI-H226 lung,4.97 µM
same,TGI,MOLT-4 leukemia,10.2 µM
same,TGI,UACC-257 melanoma,4.04 µM
same,TGI,ACHN renal,20.7 µM
same,TGI,SNB-19 CNS,7.38 µM
same,TGI,M19-MEL melanoma,3.35 µM
same,TGI,KM20L2 colon,10.3 µM
same,TGI,K-562 leukemia,4.54 µM
same,TGI,COLO 205 colon,21.9 µM
same,TGI,HOP-18 NSCLC,18.5 µM
same,TGI,SW-620 colon,7.46 µM
same,TGI,DLD-1 colon,14.8 µM
same,TGI,UO-31 renal,13.6 µM
same,TGI,SN12C renal,14.8 µM
same,TGI,SK-MEL-2 melanoma,3.18 µM
same,TGI,HT29 colon,9.42 µM
same,TGI,RXF 393 renal,13.2 µM
same,TGI,LXFL 529 NSCLC,6.26 µM
same,TGI,RPMI-8226 leukemia,4.02 µM
same,TGI,HL-60(TB) leukemia,41.6 µM
same,TGI,OVCAR-3 ovarian,11.5 µM
same,TGI,HCT-116 colon,3.19 µM
same,TGI,786-0 renal,10.9 µM
same,TGI,OVCAR-8 ovarian,8.55 µM
same,TGI,TK-10 renal,31 µM
same,TGI,HOP-62 NSCLC,11.2 µM
same,TGI,SNB-78 CNS,21.3 µM
same,TGI,DMS 273 small cell lung,3.84 µM
same,TGI,DMS 114 small cell lung,4.58 µM
same,TGI,SF-295 CNS,3.11 µM
same,TGI,NCI-H460 lung,4.01 µM
same,TGI,RXF-631 renal,7.92 µM
same,TGI,EKVX NSCLC,25.8 µM
same,TGI,OVCAR-5 ovarian,14.8 µM
same,TGI,SK-OV-3 ovarian,9 µM
same,TGI,CCRF-CEM leukemia,14 µM
same,TGI,OVCAR-4 ovarian,4.37 µM
same,TGI,SF-268 CNS,6.18 µM
same,TGI,SNB-75 CNS,65.6 µM
same,TGI,CAKI-1 renal,34.8 µM
same,TGI,M14 melanoma,3.26 µM
same,TGI,NCI-H23 lung,13.5 µM
same,TGI,MALME-3M melanoma,3.56 µM
same,TGI,KM12 colon,4.43 µM
same,TGI,HOP-92 NSCLC,8.13 µM
same,TGI,UACC-62 melanoma,3.76 µM
same,TGI,LOX IMVI melanoma,3.23 µM
same,TGI,SK-MEL-5 melanoma,16.7 µM
same,TGI,U251 CNS,3.16 µM
same,TGI,IGROV1 ovarian,14.3 µM
COC(=O)C1=C(\O)C[C@@]2(C)CC[C@@H](C(=O)OC)C2C/C=C\1C(=O)OC (some centres not stated),TGI,NCI-H522 lung,> 100 µM
same,TGI,SF-539 CNS,38.8 µM
same,TGI,HCC-2998 colon,> 100 µM
same,TGI,A549 NSCLC,> 100 µM
same,TGI,HCT-15 colon,> 100 µM
same,TGI,SR leukemia,> 100 µM
same,TGI,SK-MEL-28 melanoma,> 100 µM
same,TGI,NCI-H226 lung,> 100 µM
same,TGI,MOLT-4 leukemia,> 100 µM
same,TGI,A498 renal,75.3 µM
same,TGI,UACC-257 melanoma,> 100 µM
same,TGI,ACHN renal,> 100 µM
same,TGI,SNB-19 CNS,> 100 µM
same,TGI,M19-MEL melanoma,> 100 µM
same,TGI,KM20L2 colon,> 100 µM
same,TGI,COLO 205 colon,> 100 µM
same,TGI,HOP-18 NSCLC,> 100 µM
same,TGI,SW-620 colon,> 100 µM
same,TGI,DLD-1 colon,> 100 µM
same,TGI,UO-31 renal,> 100 µM
same,TGI,SN12C renal,> 100 µM
same,TGI,HT29 colon,> 100 µM
same,TGI,RXF 393 renal,> 100 µM
same,TGI,LXFL 529 NSCLC,> 100 µM
same,TGI,RPMI-8226 leukemia,> 100 µM
same,TGI,HL-60(TB) leukemia,> 100 µM
same,TGI,OVCAR-3 ovarian,> 100 µM
same,TGI,HCT-116 colon,> 100 µM
same,TGI,786-0 renal,> 100 µM
same,TGI,OVCAR-8 ovarian,> 100 µM
same,TGI,TK-10 renal,> 100 µM
same,TGI,HOP-62 NSCLC,> 100 µM
same,TGI,SNB-78 CNS,> 100 µM
same,TGI,DMS 273 small cell lung,> 100 µM
same,TGI,DMS 114 small cell lung,> 100 µM
same,TGI,SF-295 CNS,> 100 µM
same,TGI,NCI-H460 lung,> 100 µM
same,TGI,RXF-631 renal,> 100 µM
same,TGI,EKVX NSCLC,> 100 µM
same,TGI,OVCAR-5 ovarian,> 100 µM
same,TGI,SK-OV-3 ovarian,> 100 µM
same,TGI,CCRF-CEM leukemia,> 100 µM
same,TGI,OVCAR-4 ovarian,> 100 µM
same,TGI,SF-268 CNS,> 100 µM
same,TGI,SNB-75 CNS,> 100 µM
same,TGI,CAKI-1 renal,> 100 µM
same,TGI,M14 melanoma,> 100 µM
same,TGI,MALME-3M melanoma,> 100 µM
same,TGI,KM12 colon,> 100 µM
same,TGI,HOP-92 NSCLC,> 100 µM
same,TGI,UACC-62 melanoma,> 100 µM
same,TGI,LOX IMVI melanoma,> 100 µM
same,TGI,SK-MEL-5 melanoma,> 100 µM
same,TGI,U251 CNS,> 100 µM
same,TGI,IGROV1 ovarian,> 100 µM
